Experimental data from patent publication US11345700B2, “Methods of preparing inhibitors of influenza viruses replication” (priority 2013, dated 2022).
Where two headings read alike, the source gives them in different places.

What was measured:
[1] = tested on: influenza A/Wisconsin/67/2005 (H3N2) challenge strain virus; assay: Human influenza challenge: rates of seroconversion; type: in vivo, healthy volunteers (humans); conditions: for Serology Sero-conversion, n/N: ≥4-fold increase in anti-influenza antibody titer at Follow-up Visit vs baseline
[2] = tested on: influenza A/Wisconsin/67/2005 (H3N2) challenge strain virus; assay: Human live attenuated influenza challenge: nasal viral shedding by TCID50 cell culture assay; type: in vivo, healthy volunteers (humans)
Procedure: Subjects underwent thrice daily nasal swabs, and kept thrice daily score cards for clinical symptoms from Days 1-7, and were discharged from the facility on Day 8, with safety follow-up at approximately Day 28. Nasal swabs were assayed for influenza virus in cell culture (primary analysis) and by qRT-PCR (secondary analysis).
Additional FA group analyses were performed (data not shown).

[3] = tested on: influenza virus; type: in vivo, mice
[4] = tested on: Influenza A/California/04/2009 (pndH1N1) virus; type: in vivo, BALB/c mice
[5] = tested on: influenza A virus; assay: Mouse influenza A model: prophylactic dose response and delayed treatment, survival and body weight loss; type: in vivo, mice
From the text: The prophylactic dose response of Compound (1) was investigated in the mouse influenza A model. […] All of the mice that received vehicle alone succumbed to the infection by study day 9 and had lost, on average, ˜32% of their body weight (BW).
All vehicle controls succumbed to disease by study days 8 or 9.

[6] = tested on: influenza A/PR/8/34; assay: In vivo combination of Compound (1) with zanamivir, influenza A challenge in mice
From the text: Efficiency quotient, a composite measure of survival, bodyweight loss and lung function (% survival/(% body weight loss at Day 8)*(Penh at Day 6)) is summarized in Table 19B.

[7] = Pooled Compound (1) dose groups
[8] = Pooled Compound (1) dose groups (N = 52)
[9] = 1 mg/kg p.o. twice a day for 10 days starting 2 hours prior to virus exposure
[10] = 3 mg/kg p.o. twice a day for 10 days starting 2 hours prior to virus exposure
[11] = 10 mg/kg p.o. twice a day for 10 days starting 2 hours prior to virus exposure
[12] = treatment start +24 h relative to infection, 1 mg/kg BID
[13] = treatment start +24 h relative to infection, 3 mg/kg BID
[14] = treatment start +24 h relative to infection, 10 mg/kg BID
[15] = treatment start +48 h relative to infection, 1 mg/kg BID
[16] = treatment start +48 h relative to infection, 3 mg/kg BID
[17] = treatment start +48 h relative to infection, 10 mg/kg BID
[18] = treatment start +72 h relative to infection, 1 mg/kg BID
[19] = treatment start +72 h relative to infection, 3 mg/kg BID
[20] = treatment start +72 h relative to infection, 10 mg/kg BID
[21] = treatment start +96 h relative to infection, 3 mg/kg BID
[22] = treatment start +96 h relative to infection, 10 mg/kg BID
[23] = treatment start +120 h relative to infection, 3 mg/kg BID
[24] = treatment start +120 h relative to infection, 10 mg/kg BID
[25] = treatment start −2 h relative to infection, 0.1 mg/kg BID
[26] = treatment start −2 h relative to infection, 0.3 mg/kg BID
[27] = treatment start −2 h relative to infection, 1 mg/kg BID
[28] = treatment start −2 h relative to infection, 3 mg/kg BID
[29] = treatment start −2 h relative to infection, 10 mg/kg BID
[30] = Zanamivir 0.3 mg/kg IN x 1 (24 h prior) + Compound (1) 0.3 mg/kg BID (from 2 h prior)
[31] = Zanamivir 0.3 mg/kg IN x 1 (24 h prior) + Compound (1) 1 mg/kg BID (from 2 h prior)
[32] = Zanamivir 1 mg/kg IN x 1 (24 h prior) + Compound (1) 0.1 mg/kg BID (from 2 h prior)
[33] = Zanamivir 1 mg/kg IN x 1 (24 h prior) + Compound (1) 0.3 mg/kg BID (from 2 h prior)
[34] = Zanamivir 1 mg/kg IN x 1 (24 h prior) + Compound (1) 1 mg/kg BID (from 2 h prior)
[35] = Zanamivir 3 mg/kg IN x 1 (24 h prior) + Compound (1) 0.1 mg/kg BID (from 2 h prior)
[36] = Zanamivir 3 mg/kg IN x 1 (24 h prior) + Compound (1) 0.3 mg/kg BID (from 2 h prior)
[37] = Zanamivir 3 mg/kg IN x 1 (24 h prior) + Compound (1) 1 mg/kg BID (from 2 h prior)

O=C(O)[C@H]1[C@H]2CC[C@H](CC2)[C@@H]1Nc1nc(-c2c[nH]c3ncc(F)cc23)ncc1F [Compound (1)]
Serology Sero-conversion (%) ([1]; 100 mg QD): (69%) | Serology Sero-conversion, n/N ([1]; 100 mg QD): 11/16 | Serology Sero-conversion (%) ([1]; 400 mg QD): (47%) | Serology Sero-conversion, n/N ([1]; 400 mg QD): 9/19 | Serology Sero-conversion (%) ([1]; 900/600 mg): (68%) | Serology Sero-conversion, n/N ([1]; 900/600 mg): 13/19 | Serology Sero-conversion (%) ([1]; 1200/600 mg): (67%) | Serology Sero-conversion, n/N ([1]; 1200/600 mg): 12/18 | Serology Sero-conversion (%) [1, 7]: (63%) | Serology Sero-conversion, n/N [1, 7]: 45/72 | Viral Shedding by Tissue Culture AUC, median ([2]; 100 mg QD (N = 12)): 1.25 log10 TCID50 mL*Day | Viral Shedding by Tissue Culture Duration, median ([2]; 100 mg QD (N = 12)): 0.96 days | Viral Shedding by Tissue Culture Peak, mean ([2]; 100 mg QD (N = 12)): 2.09 log10 TCID50/mL | Viral Shedding by Tissue Culture AUC, median ([2]; 400 mg QD (N = 12)): 0.70 log10 TCID50 mL*Day | Viral Shedding by Tissue Culture Duration, median ([2]; 400 mg QD (N = 12)): 1.60 days | Viral Shedding by Tissue Culture Peak, mean ([2]; 400 mg QD (N = 12)): 1.73 log10 TCID50/mL | Viral Shedding by Tissue Culture AUC, median ([2]; 900/600 mg (N = 14)): 3.20 log10 TCID50 mL*Day | Viral Shedding by Tissue Culture Duration, median ([2]; 900/600 mg (N = 14)): 2.71 days | Viral Shedding by Tissue Culture Peak, mean ([2]; 900/600 mg (N = 14)): 2.68 log10 TCID50/mL | Viral Shedding by Tissue Culture AUC, median ([2]; 1200/600 mg (N = 14)): 0.35 log10 TCID50 mL*Day | Viral Shedding by Tissue Culture Duration, median ([2]; 1200/600 mg (N = 14)): 0.00 days | Viral Shedding by Tissue Culture Peak, mean ([2]; 1200/600 mg (N = 14)): 1.00 log10 TCID50/mL | Viral Shedding by Tissue Culture AUC, median [2, 8]: 0.65 log10 TCID50 mL*Day | Viral Shedding by Tissue Culture Duration, median [2, 8]: 0.71 days | Viral Shedding by Tissue Culture Peak, mean [2, 8]: 1.87 log10 TCID50/mL | half maximal reduction in lung titers ([3]; mice infected 24 h, then dosed for 24 h (q6 h, q12 h, q24 h)): 2-3 log | serum-shifted EC99 ([3]; plasma concentration near which half maximal reduction in lung titers occurs): 100 ng/mL | Mean Lung Parameters (Day 6): Score (hemorrhage score 0-4) [4, 9]: 0.6 | Mean Lung Parameters (Day 6): Virus Titer [4, 9]: 5.5 Log10 CCID50/g | Mean Lung Parameters (Day 6): Weight [4, 9]: 246 mg | Mean Lung Parameters (Day 6): Score (hemorrhage score 0-4) [4, 10]: 0.0 | Mean Lung Parameters (Day 6): Virus Titer [4, 10]: 3.1 Log10 CCID50/g | Mean Lung Parameters (Day 6): Weight [4, 10]: 123 mg | Mean Lung Parameters (Day 6): Score (hemorrhage score 0-4) [4, 11]: 0.2 | Mean Lung Parameters (Day 6): Virus Titer [4, 11]: <2.6^d*** Log10 CCID50/g | Mean Lung Parameters (Day 6): Weight [4, 11]: 132 mg | survival (mice) ([5]; 0.3 mg/kg BID for 10 days, initiated 2 h prior to infection): 2/8 | Percent Body Weight Loss on Study Day 8 [5, 12]: −23.4% | Percent Survival [5, 12]: 100% | Percent Body Weight Loss on Study Day 8 [5, 13]: −14.2% | Percent Survival [5, 13]: 100% | Percent Body Weight Loss on Study Day 8 [5, 14]: −6.2% | Percent Survival [5, 14]: 100% | Percent Body Weight Loss on Study Day 8 [5, 15]: −22.5% | Percent Survival [5, 15]: 100% | Percent Body Weight Loss on Study Day 8 [5, 16]: −10.9% | Percent Survival [5, 16]: 100% | Percent Body Weight Loss on Study Day 8 [5, 17]: −7.1% | Percent Survival [5, 17]: 100% | Percent Body Weight Loss on Study Day 8 [5, 18]: −29.4% | Percent Survival [5, 18]: 100% | Percent Body Weight Loss on Study Day 8 [5, 19]: −23.2% | Percent Survival [5, 19]: 100% | Percent Body Weight Loss on Study Day 8 [5, 20]: −17.4% | Percent Survival [5, 20]: 100% | Percent Body Weight Loss on Study Day 8 [5, 21]: −27.3% | Percent Survival [5, 21]: 100% | Percent Body Weight Loss on Study Day 8 [5, 22]: −25.5% | Percent Survival [5, 22]: 100% | Percent Body Weight Loss on Study Day 8 [5, 23]: −32.6% | Percent Survival [5, 23]: 12.5% | Percent Body Weight Loss on Study Day 8 [5, 24]: −34.4% | Percent Survival [5, 24]: 37.5% | Percent Body Weight Loss on Study Day 8 [5, 25]: −31.9% | Percent Survival [5, 25]: 0% | Percent Body Weight Loss on Study Day 8 [5, 26]: −30.4% | Percent Survival [5, 26]: 25% | Percent Body Weight Loss on Study Day 8 [5, 27]: −16.8% | Percent Survival [5, 27]: 100% | Percent Body Weight Loss on Study Day 8 [5, 28]: −8.7% | Percent Survival [5, 28]: 100% | Percent Body Weight Loss on Study Day 8 [5, 29]: −2.8% | Percent Survival [5, 29]: 100% | Survival Rate ([6]; Compound (1) 0.1 mg/kg BID 10 days, 1st dose 2 h prior to infection, Zanamivir 0): 12.5 | Survival Rate ([6]; Compound (1) 0.3 mg/kg BID 10 days, 1st dose 2 h prior to infection, Zanamivir 0): 44.4 | Efficiency Quotient (% survival/(% body weight loss at Day 8)*(Penh at Day 6)) ([6]; Compound (1) 0.3 mg/kg BID, 1st dose 2 h prior to infection, Zanamivir 0): 0.59 | Survival Rate ([6]; Compound (1) 1 mg/kg BID 10 days, 1st dose 2 h prior to infection, Zanamivir 0): 100 | Efficiency Quotient (% survival/(% body weight loss at Day 8)*(Penh at Day 6)) ([6]; Compound (1) 1 mg/kg BID, 1st dose 2 h prior to infection, Zanamivir 0): 2.32 | Survival Rate ([6]; Zanamivir 0.3 mg/kg IN x 1 (24 h prior) + Compound (1) 0.1 mg/kg BID (from 2 h prior)): 0 | Efficiency Quotient (% survival/(% body weight loss at Day 8)*(Penh at Day 6)) [6, 30]: 1.35 | Survival Rate [6, 30]: 100 | Efficiency Quotient (% survival/(% body weight loss at Day 8)*(Penh at Day 6)) [6, 31]: 2.97 | Survival Rate [6, 31]: 100 | Efficiency Quotient (% survival/(% body weight loss at Day 8)*(Penh at Day 6)) [6, 32]: 1.00 | Survival Rate [6, 32]: 75 | Efficiency Quotient (% survival/(% body weight loss at Day 8)*(Penh at Day 6)) [6, 33]: 1.61 | Survival Rate [6, 33]: 100 | Efficiency Quotient (% survival/(% body weight loss at Day 8)*(Penh at Day 6)) [6, 34]: 2.31 | Survival Rate [6, 34]: 100 | Efficiency Quotient (% survival/(% body weight loss at Day 8)*(Penh at Day 6)) [6, 35]: 1.30 | Survival Rate [6, 35]: 100 | Efficiency Quotient (% survival/(% body weight loss at Day 8)*(Penh at Day 6)) [6, 36]: 1.48 | Survival Rate [6, 36]: 100 | Efficiency Quotient (% survival/(% body weight loss at Day 8)*(Penh at Day 6)) [6, 37]: 4.28 | Survival Rate [6, 37]: 100
